How the values were obtained:
Format in all cases: in vivo
[1] = system: barnyardgrass (Echinochloa crus-galli); experiment: Test A preemergence, barnyardgrass; conditions: Preemergence, 0 to 100 scale (0 no effect, 100 complete control)
Summary of the method: (§1)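 Ratings run 0–100, where 100 is complete control, and were scored visually against untreated plants about 10 days after treatment under greenhouse conditions. Formulated chemicals were sprayed either onto the soil surface after seeding (preemergence) or onto one- to two-leaf seedlings 2–10 cm high (postemergence).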

[2] = system: kochia (Kochia scoparia); experiment: Test A preemergence, kochia; conditions: Preemergence, 0 to 100 scale (0 no effect, 100 complete control)
Summary of the method: as §1

[3] = system: ragweed (common ragweed, Ambrosia elatior); experiment: Test A preemergence, ragweed; conditions: Preemergence, 0 to 100 scale (0 no effect, 100 complete control)
Summary of the method: as §1

[4] = system: ryegrass, Italian (Italian ryegrass, Lolium multiflorum); experiment: Test A preemergence, Italian ryegrass; conditions: Preemergence, 0 to 100 scale (0 no effect, 100 complete control)
Summary of the method: as §1

[5] = system: foxtail, giant (giant foxtail, Setaria faberii); experiment: Test A preemergence, giant foxtail; conditions: Preemergence, 0 to 100 scale (0 no effect, 100 complete control)
Summary of the method: as §1

[6] = system: pigweed (Amaranthus retroflexus); experiment: Test A preemergence, pigweed; conditions: Preemergence, 0 to 100 scale (0 no effect, 100 complete control)
Summary of the method: as §1

[7] = system: barnyardgrass (Echinochloa crus-galli); experiment: Test A postemergence, barnyardgrass
Summary of the method: as §1

[8] = system: kochia (Kochia scoparia); experiment: Test A postemergence, kochia
Summary of the method: as §1

[9] = system: ragweed (common ragweed, Ambrosia elatior); experiment: Test A postemergence, ragweed
Summary of the method: as §1

[10] = system: ryegrass, Italian (Italian ryegrass, Lolium multiflorum); experiment: Test A postemergence, Italian ryegrass
Summary of the method: as §1

[11] = system: foxtail, giant (giant foxtail, Setaria faberii); experiment: Test A postemergence, giant foxtail
Summary of the method: as §1

[12] = system: pigweed (Amaranthus retroflexus); experiment: Test A postemergence, pigweed
Summary of the method: as §1

[13] = system: wheat (Triticum aestivum); experiment: Test A postemergence, wheat
Summary of the method: as §1

[14] = system: corn (Zea mays); experiment: Test A postemergence, corn
Summary of the method: as §1

[15] = system: blackgrass (Alopecurus myosuroides); experiment: Test A postemergence, blackgrass
Summary of the method: as §1

[16] = system: galium (catchweed bedstraw, Galium aparine); experiment: Test A postemergence, galium
Summary of the method: as §1

[17] = system: rice (Oryza sativa); experiment: Test B flooded paddy test, rice; conditions: 250 g ai/ha, Flood; visual rating after 13 to 15 days; scale 0 to 100, 0 is no effect, 100 is complete control
Summary of the method: (§2)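 Plants grown to the 2-leaf stage; pots flooded to 3 cm above soil and compounds applied directly into the paddy water, depth held throughout. After 13 to 15 days in the greenhouse, injury was rated visually against untreated controls on a 0–100 scale (0 no effect, 100 complete control).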

[18] = system: sedge, umbrella (small-flower umbrella sedge, Cyperus difformis); experiment: Test B flooded paddy test, umbrella sedge; conditions: 250 g ai/ha, Flood; visual rating after 13 to 15 days; scale 0 to 100, 0 is no effect, 100 is complete control
Summary of the method: as §2

[19] = system: ducksalad (Heteranthera limosa); experiment: Test B flooded paddy test, ducksalad; conditions: 250 g ai/ha, Flood; visual rating after 13 to 15 days; scale 0 to 100, 0 is no effect, 100 is complete control
Summary of the method: as §2

[20] = system: barnyardgrass (Echinochloa crus-galli); experiment: Test B flooded paddy test, barnyardgrass; conditions: 250 g ai/ha, Flood; visual rating after 13 to 15 days; scale 0 to 100, 0 is no effect, 100 is complete control
Summary of the method: as §2

[21] = 31 g ai/ha, postemergence, 0 to 100 scale, 0 is no effect, 100 is complete control, approximately 10 days
[22] = 125 g ai/ha, postemergence, 0 to 100 scale, 0 is no effect, 100 is complete control, approximately 10 days
[23] = Postemergence, 31 g ai/ha, 0 to 100 scale (0 no effect, 100 complete control)
[24] = 500 g ai/ha, postemergence, 0 to 100 scale, 0 is no effect, 100 is complete control, approximately 10 days

Row | Structure (SMILES) | Plant response rating, Barnyardgrass ([1]; 125 g ai/ha) | Plant response rating, Kochia ([2]; 125 g ai/ha) | Plant response rating, Ragweed ([3]; 125 g ai/ha) | Plant response rating, Ryegrass, Italian ([4]; 125 g ai/ha) | Plant response rating, Foxtail, Giant ([5]; 125 g ai/ha) | Plant response rating, Pigweed ([6]; 125 g ai/ha) | Plant response rating, Barnyardgrass [7, 22] | Plant response rating, Kochia [8, 22] | Plant response rating, Ragweed [9, 22] | Plant response rating, Ryegrass, Italian [10, 22] | Plant response rating, Foxtail, Giant [11, 22] | Plant response rating, Pigweed [12, 22] | Plant response rating, Wheat [13, 22] | Plant response rating, Corn [14, 22] | Plant response rating, Blackgrass [15, 22] | Plant response rating, Galium [16, 22] | Plant response rating, Rice [17] | Plant response rating, Sedge, Umbrella [18] | Plant response rating, Ducksalad [19] | Plant response rating, Barnyardgrass [20] | other results
1 | CCCCCOc1c(C#N)cccc1Oc1ncc(Cl)cn1 [Compound 51] | 40 | 40 | 0 | 0 | 100 | 50 | 30 | 70 | 10 | 10 | 40 | 40 | 0 | 20 | 20 | 70 | 0 | 95 | 80 | 0 | Plant response rating, Barnyardgrass ([1]; 31 g ai/ha): 10; Plant response rating, Kochia ([2]; 31 g ai/ha): 0; Plant response rating, Ragweed ([3]; 31 g ai/ha): 0; Plant response rating, Ryegrass, Italian ([4]; 31 g ai/ha): 0; Plant response rating, Foxtail, Giant ([5]; 31 g ai/ha): 40; Plant response rating, Pigweed ([6]; 31 g ai/ha): 10; Plant response rating, Barnyardgrass [7, 21]: 10; Plant response rating, Kochia [8, 21]: 40; Plant response rating, Ragweed [9, 21]: 0; Plant response rating, Ryegrass, Italian [10, 21]: 0; Plant response rating, Foxtail, Giant [11, 21]: 10; Plant response rating, Pigweed [12, 21]: 10; Plant response rating, Wheat [13, 21]: 0; Plant response rating, Corn [14, 21]: 10; Plant response rating, Blackgrass [15, 21]: 0; Plant response rating, Galium [16, 21]: 40
2 | N#Cc1cccc(Oc2ncc(Cl)cn2)c1OCC(=O)C(F)(F)C(F)(F)F [Compound 74] | 30 | 0 | 0 | 0 | 70 | 80 | 20 | 20 | 20 | 0 | 40 | 70 | 0 | 20 | 0 | 30 | 0 | 0 | 0 | 0 | Plant response rating, Barnyardgrass ([1]; 31 g ai/ha): 0; Plant response rating, Kochia ([2]; 31 g ai/ha): 0; Plant response rating, Ragweed ([3]; 31 g ai/ha): 0; Plant response rating, Ryegrass, Italian ([4]; 31 g ai/ha): 0; Plant response rating, Foxtail, Giant ([5]; 31 g ai/ha): 0; Plant response rating, Pigweed ([6]; 31 g ai/ha): 60; Plant response rating, Barnyardgrass [7, 23]: 0; Plant response rating, Kochia [8, 23]: 0; Plant response rating, Ragweed [9, 23]: 20; Plant response rating, Ryegrass, Italian [10, 23]: 0; Plant response rating, Foxtail, Giant [11, 23]: 0; Plant response rating, Pigweed [12, 23]: 20; Plant response rating, Wheat [13, 23]: 0; Plant response rating, Corn [14, 23]: 0; Plant response rating, Blackgrass [15, 23]: 0; Plant response rating, Galium [16, 23]: 0
3 | CC(C)CCCOc1c(Br)cccc1Oc1ncc(Cl)cn1 [Compound 11] | 20 | 0 | 0 | 0 | 90 | 0 | 10 | 20 | 0 | 0 | 20 | 60 | 0 | 30 | 0 | 70 | 0 | 0 | 0 | 0 | Plant response rating, Barnyardgrass ([1]; 500 g ai/ha): 90; Plant response rating, Kochia ([2]; 500 g ai/ha): 0; Plant response rating, Ragweed ([3]; 500 g ai/ha): 0; Plant response rating, Ryegrass, Italian ([4]; 500 g ai/ha): 30; Plant response rating, Foxtail, Giant ([5]; 500 g ai/ha): 100; Plant response rating, Pigweed ([6]; 500 g ai/ha): 80; Plant response rating, Barnyardgrass [7, 24]: 90; Plant response rating, Kochia [8, 24]: 90; Plant response rating, Ragweed [9, 24]: 0; Plant response rating, Ryegrass, Italian [10, 24]: 20; Plant response rating, Foxtail, Giant [11, 24]: 60; Plant response rating, Pigweed [12, 24]: 100; Plant response rating, Wheat [13, 24]: 20; Plant response rating, Corn [14, 24]: 30; Plant response rating, Blackgrass [15, 24]: 40; Plant response rating, Galium [16, 24]: 100
4 | Fc1cccc(Oc2ncc(Cl)cn2)c1OC/C=C/Cl [Compound 9] | 40 | 40 | 0 | 0 | 100 | 80 | 20 | 70 | 0 | 0 | 20 | 60 | 0 | 10 | 10 | 60 | 0 | 80 | 80 | 0 | Plant response rating, Barnyardgrass ([1]; 500 g ai/ha): 100; Plant response rating, Kochia ([2]; 500 g ai/ha): 100; Plant response rating, Ragweed ([3]; 500 g ai/ha): 0; Plant response rating, Ryegrass, Italian ([4]; 500 g ai/ha): 20; Plant response rating, Foxtail, Giant ([5]; 500 g ai/ha): 100; Plant response rating, Pigweed ([6]; 500 g ai/ha): 100; Plant response rating, Barnyardgrass [7, 24]: 80; Plant response rating, Kochia [8, 24]: 100; Plant response rating, Ragweed [9, 24]: 0; Plant response rating, Ryegrass, Italian [10, 24]: 10; Plant response rating, Foxtail, Giant [11, 24]: 80; Plant response rating, Pigweed [12, 24]: 100; Plant response rating, Wheat [13, 24]: 10; Plant response rating, Corn [14, 24]: 30; Plant response rating, Blackgrass [15, 24]: 70; Plant response rating, Galium [16, 24]: 90
5 | FC(F)(F)c1ccc(COc2c(Br)cccc2Oc2ncc(Cl)cn2)cc1 [Compound 19] | 0 | 0 | 0 | 0 | 10 | 0 | 0 | 10 | 10 | 0 | 0 | 20 | 0 | 10 | 0 | 0 | 0 | 0 | 0 | 0 | Plant response rating, Barnyardgrass ([1]; 500 g ai/ha): 60; Plant response rating, Kochia ([2]; 500 g ai/ha): 0; Plant response rating, Ragweed ([3]; 500 g ai/ha): 0; Plant response rating, Ryegrass, Italian ([4]; 500 g ai/ha): 20; Plant response rating, Foxtail, Giant ([5]; 500 g ai/ha): 90; Plant response rating, Pigweed ([6]; 500 g ai/ha): 0; Plant response rating, Barnyardgrass [7, 24]: 20; Plant response rating, Kochia [8, 24]: 50; Plant response rating, Ragweed [9, 24]: 20; Plant response rating, Ryegrass, Italian [10, 24]: 0; Plant response rating, Foxtail, Giant [11, 24]: 20; Plant response rating, Pigweed [12, 24]: 100; Plant response rating, Wheat [13, 24]: 20; Plant response rating, Corn [14, 24]: 30; Plant response rating, Blackgrass [15, 24]: 10; Plant response rating, Galium [16, 24]: 30

Source: US10485235B2, “Aryloxypyrimidinyl ethers as herbicides” (FMC Corporation, priority 2015, dated 2019)
